From publication PMC4052115 (Journal of immunology (Baltimore, Md. : 1950), 2014)

How the values were obtained:
DC2.4 cells = format: cell-based
[1] = target: H-2K^b (K^b heavy chain with β2-microglobulin), recombinant, refolded (mouse | not stated); experiment: circular dichroism thermal denaturation
[2] = test system: brain-derived CD8 T cells; experiment: IFN-γ intracellular cytokine staining of brain-derived leukocytes; format: cell-based, C57BL/6 (B6) mice; settings: brain-derived cells of rJ-infected mice, day 7 p.i.
[3] = test system: brain-derived CD8 T cells; settings: ref [14]; cited from earlier work
[4] = Immunogenicity in preliminary experiments; settings: data not shown

CSLWNGPHL [Epitope S510]
detection of peptide eluted from MHC complexes (DC2.4 cells): neither peptide was detectable

TSYKFESV [Epitope B8_20-27]
level of VacV-derived control peptide (DC2.4 cells): equivalently high levels

S598 peptide (native epitope), Aba-modified
Tm of the K^b/peptide complex [1]: 56.2 °C

RCYIFANI [Epitope Q600Y]
fraction of S598-primed CD8 T cells recognizing the variant peptide [2]: only a small fraction
fraction of responding T cells that recognized only the variant epitope [3]: ~ 35%

RCEIFANI [Epitope Q600E]
immunogenicity [4]: not immunogenic

Q600F peptide (heteroclitic S598 analogue), Aba-modified (from UniProt P22432 598-605)
Tm of the K^b/peptide complex [1]: 62.7 °C
